Drawing on patent publication US20080221134A1, “8-ALKYNYLXANTHINES AND DERIVATIVES” (priority 2006, published 2008), this text covers melting point, Mao-B-inhibition values and inhibition for eleven molecules.

The target in one series is T1, MAO-B (Homo sapiens, UniProt P27338).
T1 sequence (P27338 1-520): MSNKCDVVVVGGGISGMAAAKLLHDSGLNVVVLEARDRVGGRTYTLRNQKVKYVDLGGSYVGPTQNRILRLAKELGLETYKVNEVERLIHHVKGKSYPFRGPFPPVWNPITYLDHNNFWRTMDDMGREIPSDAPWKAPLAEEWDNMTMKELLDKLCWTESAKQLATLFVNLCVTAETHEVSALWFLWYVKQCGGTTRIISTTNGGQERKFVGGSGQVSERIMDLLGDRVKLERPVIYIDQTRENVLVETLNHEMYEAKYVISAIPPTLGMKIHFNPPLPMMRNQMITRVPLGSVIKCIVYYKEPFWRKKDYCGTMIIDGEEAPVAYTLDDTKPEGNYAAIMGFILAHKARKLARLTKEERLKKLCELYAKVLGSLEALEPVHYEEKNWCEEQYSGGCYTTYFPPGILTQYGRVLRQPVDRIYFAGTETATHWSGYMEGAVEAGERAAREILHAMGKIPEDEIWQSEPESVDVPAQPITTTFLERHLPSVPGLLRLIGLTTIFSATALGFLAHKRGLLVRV
The series can be described thus: MAO-B inhibition. It is filed as biochemical.

The next series has as its target T2, Adenosine A2B (Homo sapiens, UniProt P29275).
T2 construct: expressed in transfected cells; host or cells: HEK-293 cells
T2 sequence (P29275 1-332): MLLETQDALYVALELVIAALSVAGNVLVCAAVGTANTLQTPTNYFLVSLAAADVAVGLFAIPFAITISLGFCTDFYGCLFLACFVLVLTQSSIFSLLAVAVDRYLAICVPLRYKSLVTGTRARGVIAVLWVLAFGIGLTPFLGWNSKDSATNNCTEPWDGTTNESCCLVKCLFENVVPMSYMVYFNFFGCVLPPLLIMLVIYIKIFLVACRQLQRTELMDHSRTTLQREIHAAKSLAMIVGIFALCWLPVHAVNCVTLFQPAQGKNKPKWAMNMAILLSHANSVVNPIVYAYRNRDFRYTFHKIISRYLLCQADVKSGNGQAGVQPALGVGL
The experiment in a line: Radioligand binding assay 2, Adenosine A2B. The note with it: at 1 μmol/l; human recombinant HEK-293 cells, [3H]MRS 1754; read-out: A2B AR % inhibition of agonist binding. How it is done:
(§1) The assays were performed under the conditions described below. The literature references are also provided for each assay:
The adenosine A2B radioligand binding assay used is further described in Stehle J. H. et al., Mol. Endocrinol., 1992, 6, 384 and is incorporated herein by reference.
(§2) The specific ligand binding to the receptors is defined as the difference between the total binding and the non-specific binding determined in the presence of an excess of unlabelled ligand. The results are expressed as a percent of control specific binding and as percent inhibition of control specific binding obtained in the presence of the test compounds.

The next series concerns the target T3, Adenosine A3 (Homo sapiens, UniProt P0DMS8).
T3 construct: expressed in transfected cells; host or cells: HEK-293 cells
T3 sequence (P0DMS8 1-318): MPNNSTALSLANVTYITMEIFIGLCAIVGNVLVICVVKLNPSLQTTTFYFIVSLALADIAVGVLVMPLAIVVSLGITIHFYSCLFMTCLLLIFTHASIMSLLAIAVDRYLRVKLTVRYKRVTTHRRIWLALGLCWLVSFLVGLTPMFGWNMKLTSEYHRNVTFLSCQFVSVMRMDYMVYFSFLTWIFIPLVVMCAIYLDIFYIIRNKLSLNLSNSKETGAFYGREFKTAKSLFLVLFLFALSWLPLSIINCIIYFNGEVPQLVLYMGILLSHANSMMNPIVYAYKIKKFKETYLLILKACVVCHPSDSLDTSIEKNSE
The series can be described thus: Radioligand binding assay 2, Adenosine A3. To be noted: at 1 μmol/l; human recombinant HEK-293 cells, [125I]AB-MECA; read-out: A3 AR % inhibition of agonist binding. How it is done: as §1
The adenosine A3 radioligand binding assay used is further described in Salvatore C. A. et al., Proc. Natl. Acad. Sci. USA, 1993, 90, 10365 and is incorporated herein by reference.
as §2

The target of the next series is T4, Adenosine A1 (Homo sapiens, UniProt P30542).
T4 sequence (P30542 1-326): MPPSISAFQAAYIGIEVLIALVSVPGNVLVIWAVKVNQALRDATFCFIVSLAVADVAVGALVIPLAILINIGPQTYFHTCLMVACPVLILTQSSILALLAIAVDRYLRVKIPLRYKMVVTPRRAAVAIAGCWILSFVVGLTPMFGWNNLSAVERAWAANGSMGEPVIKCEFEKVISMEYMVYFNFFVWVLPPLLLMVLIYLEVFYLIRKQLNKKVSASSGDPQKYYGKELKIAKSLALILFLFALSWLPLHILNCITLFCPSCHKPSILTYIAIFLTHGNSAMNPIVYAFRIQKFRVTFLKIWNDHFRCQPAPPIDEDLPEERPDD
The experiment in a line: Radioligand binding assay 2, Adenosine A1. Further details: expressed in transfected cells; host or cells: CHO cells. To be noted: at 1 μmol/l; human recombinant CHO cells, [3H]CCPA; read-out: A1 AR % inhibition of agonist binding. How it is done:
as §1
The adenosine A1 radioligand binding assay used is further described in Rivkees S. A. et al., J. Biol. Chem., 1995, 270, 20485 and is incorporated herein by reference.
as §2

In another series the target is Adenosine A2A (Homo sapiens, UniProt P29274). The experiment in a line: Radioligand binding assay 2, Adenosine A2A. More on the design: expressed in transfected cells; host or cells: HEK-293 cells. The note with it: at 1 μmol/l; human recombinant HEK-293 cells, [3H]CGS 21680; read-out: A2A AR % inhibition of agonist binding. On the procedure:
as §1
The adenosine A2A radioligand binding assay used is further described in Luthin D. R. et al., Mol. Pharmacol., 1995, 47 and is incorporated herein by reference.
as §2

Sequence of Adenosine A2A (P29274 whole entry): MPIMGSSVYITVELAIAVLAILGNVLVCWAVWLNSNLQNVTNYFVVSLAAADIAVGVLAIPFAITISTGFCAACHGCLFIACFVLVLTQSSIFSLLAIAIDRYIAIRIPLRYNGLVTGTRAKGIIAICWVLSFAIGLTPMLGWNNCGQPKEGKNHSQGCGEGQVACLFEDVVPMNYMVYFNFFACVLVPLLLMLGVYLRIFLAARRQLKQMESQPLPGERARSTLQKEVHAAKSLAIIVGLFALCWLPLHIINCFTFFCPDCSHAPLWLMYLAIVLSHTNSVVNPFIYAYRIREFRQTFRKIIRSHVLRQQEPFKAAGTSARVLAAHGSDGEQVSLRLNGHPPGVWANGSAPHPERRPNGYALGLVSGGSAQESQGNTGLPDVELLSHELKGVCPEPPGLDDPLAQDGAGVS

Molecule `C#CCn1c(=O)c2c(nc(C#Cc3cccc(OC(C)=O)c3)n2C)n(C)c1=O` [8-(3-Acetoxyphenylethynyl)-3,7-dimethyl-1-prop-2-ynyl-3,7-dihydropurine-2,6-dione] showed a melting point of 238 °C.
The same measure, in the same setting: in the case of `C#CCn1c(=O)c2c(nc(C#Cc3cccc(O)c3)n2C)n(C)c1=O` [8-(3-Hydroxyphenylethynyl)-3,7-dimethyl-1-prop-2-ynyl-3,7-dihydropurine-2,6-dione] it was 271 °C.
Take `C#CCn1c(=O)c2c(nc(C#Cc3cccc(Br)c3)n2C)n(C)c1=O` [8-(3-bromophenylethynyl)-3,7-dimethyl-1-prop-2-ynyl-3,7-dihydropurine-2,6-dione]: at MAO-B, the Mao-B-inhibition values entry is “submikromolar range”.
The same measure, in the same setting: in the case of `C#CCn1c(=O)c2c(nc(C#Cc3cccc(Cl)c3)n2C)n(C)c1=O` [8-(3-chlorophenylethynyl)-3,7-dimethyl-1-prop-2-ynyl-3,7-dihydropurine-2,6-dione] it was “submikromolar range”.
`C#CCn1c(=O)c2c(nc(C#Cc3cccc(OC)c3)n2C)n(C)c1=O` [drawing 607]: the inhibition at 1 µM on Adenosine A2B is 19%; on Adenosine A3, 24%; at Adenosine A1, 5%; at Adenosine A2A it was 81%.
In the same order, the values of `C#CCn1c(=O)c2c(nc(C#Cc3ccc(OC)c(OC)c3)n2C)n(CC)c1=O` [drawing 608] are 14%, 38%, 4% and 95%.
In the same order, the values of `C#CCn1c(=O)c2c(nc(C#Cc3ccc(OC)c(OC)c3)n2C)n(C)c1=O` [drawing 609] are 19%, 16%, 10% and 85%.
The corresponding values for `C#CCn1c(=O)c2c(nc(C#Cc3cccc(OC)c3)n2CC#C)n(C)c1=O` [drawing 610] are 22%, 37%, 24% and 86%.
Take `C#CCn1c(=O)c2c(nc(C#Cc3cccc(OC)c3)n2C)n(CCCO)c1=O` [drawing 611]: the inhibition at 1 µM was determined as 6% on Adenosine A2B, 37% on Adenosine A3, 41% on Adenosine A1 and 93% at Adenosine A2A.
Regarding `C#CCn1c(=O)c2c(nc(C#Cc3ccc(OC)c(OC)c3)n2C)n(CCCO)c1=O` [drawing 612], the inhibition at 1 µM at Adenosine A2B was 14%; on Adenosine A3 it was 36%; on Adenosine A1, 34%; on Adenosine A2A it was 97%.
As to `C#CCn1c(=O)c2c(nc(C#Cc3cccc(C)c3)n2C)n(CCCO)c1=O` [drawing 613], the inhibition at 1 µM on Adenosine A2B was 17%; at Adenosine A3, 54%; at Adenosine A1, 43%; at Adenosine A2A, 92%.

Broadly, the melting point is the temperature of the solid-liquid transition. By inhibition is commonly meant how much of the control response was suppressed.
